# Results published in US6670394B1, “Method for treating COPD” (SmithKline Beecham Corporation, priority 1999, dated 2003).
# Key:
# [1] = target: high affinity rolipram binding site of PDE 4; assay: [3H]-rolipram binding competition assay (high affinity form, HPDE 4); details: competition for 1 nM [3H]-rolipram, rat brain high speed supernatants, 1 hour at 30° C.
# Method: Rat brain high speed supernatants were used as a source of protein. […] The assay was run for 1 hour at 30° C. The reaction was terminated and bound ligand was separated from free ligand using a Brandel cell harvester. Competition for the high affinity binding site was assessed under conditions that were identical to those used for measuring low affinity PDE activity, expect that [^3H]-cAMP and [^3H]5′-AMP were not present.
# [2] = target: T1, low affinity form of PDE 4 (human monocyte PDE 4 / hrPDE) (Homo sapiens, UniProt P27815); assay: PDE 4 catalytic activity assay (low affinity form, LPDE 4); assay type: biochemical; details: HPDE 4 IC50/LPDE 4 IC50
# T1 construct: made in house; host or cells: yeast
# Description: Overall, most of the recombinant PDE 4 expressed in this system exists as LPDE 4 and only a small fraction as HPDE 4. Consequently, inhibition of recombinant PDE 4 catalytic activity primarily reflects the actions of compounds at LPDE 4. Inhibition of PDE 4 catalytic activity can thus be used as an index of the potency of compounds at LPDE 4.
# [3] = test system: TNFα production from isolated human monocytes; acid secretion in isolated rabbit parietal glands; assay: Therapeutic index, in vitro comparison: TNFα suppression in human monocytes versus acid secretion in rabbit parietal glands; assay type: cell-based; details: in comparison with R-rolipram
# Method: Samples were then centrifuged and radioactivity in aliquots of the supernatant fraction and pellet were determined. […] The data were expressed as a percent of a response produced by a maximal concentration of histamine (100 μM). EC50 values were determined by linear interpolation using the maximum response obtained for each compound.
# TNFα inhibition was assessed in human peripheral blood monocytes which were purified (Collata) from freshly obtained buffy coats or plasma-phoresis residues of blood from normal human donors. […] The cells were allowed to adhere for 1 hr, after which time the supernatant was aspirated and 1 ml of fresh medium (RPMI-1640 containing 1% fetal calf serum and penicillin/streptomycin at 10 U/ml) was added. The cells were incubated for 45 min in the presence or absence of test compounds at concentrations ranging from 1 nM to 1 mM prior to the addition of LPS (E. coli. 055:B5, Sigma Chemicals) to yield a final concentration of 100 ng/ml. […]
# Levels of TNFα were measured using a ELISA (Winston) employing a murine monoclonal anti-human TNFα antibody (see below) as the capture antibody and a polyclonal rabbit antihuman TNFα as the second antibody. […] TNFα levels in samples were calculated from a standard curve generated with recombinant human TNFα produced in E. coli. […]
# acid secretion = details: rats, particularly in combination with an activator of adenylate cyclase such as histamine; cited from earlier work
# COPD = assay: Administration to humans suffering from COPD; assay type: in vivo, human
# Method: As regards treating COPD, the compound cis-[4-cyano-4-(3-cyclopentyloxy-4-methoxyphenyl)cyclohexan-1-carboxylate] was administered to humans suffering from COPD.
# [4] = clinical studies; cited from earlier work
# T1 sequence (P27815 1-686 isoform P27815-3): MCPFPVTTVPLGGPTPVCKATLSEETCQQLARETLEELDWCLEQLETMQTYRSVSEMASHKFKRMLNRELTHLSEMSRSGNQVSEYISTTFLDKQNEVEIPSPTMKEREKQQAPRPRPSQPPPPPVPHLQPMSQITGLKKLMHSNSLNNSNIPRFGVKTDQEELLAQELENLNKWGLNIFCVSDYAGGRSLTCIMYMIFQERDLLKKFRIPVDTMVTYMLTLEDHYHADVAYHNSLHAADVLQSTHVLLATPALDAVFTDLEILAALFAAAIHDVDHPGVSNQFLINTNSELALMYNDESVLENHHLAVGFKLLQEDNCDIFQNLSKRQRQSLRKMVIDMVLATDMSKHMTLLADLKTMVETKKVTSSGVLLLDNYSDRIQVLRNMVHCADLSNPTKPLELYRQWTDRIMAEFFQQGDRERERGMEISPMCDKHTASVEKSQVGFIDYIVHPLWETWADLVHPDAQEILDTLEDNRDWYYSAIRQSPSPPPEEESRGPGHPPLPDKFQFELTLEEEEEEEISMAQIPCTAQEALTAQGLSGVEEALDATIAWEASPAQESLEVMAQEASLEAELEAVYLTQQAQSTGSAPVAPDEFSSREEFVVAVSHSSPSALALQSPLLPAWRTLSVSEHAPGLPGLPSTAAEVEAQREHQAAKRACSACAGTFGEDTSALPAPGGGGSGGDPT
SMILES,High/Low Ratio (IC50 high affinity form divided by IC50 low affinity form) [2],other results
COc1ccc([C@@H]2CC[C@H](C(=O)O)C2)cc1OC1CCCC1 (relative stereo) [cis-[3-(3-cyclopentyloxy-4-methoxyphenyl)cyclopentane-1-carboxylate]],0.0078,IC50 [1]: 0.021 µM
COc1ccc(C2CN(Cc3ccc(N)cc3)C(=O)N2)cc1OC1CCCC1 (centres unmarked) [1-(4-aminobenzyl)-4-(3-cyclopentyloxy-4-methoxyphenyl)-2-imidazolidinone],0.07,
COc1ccc(C2CCC(c3nnn[nH]3)C2)cc1OC1CCCC1 (centres unmarked) [1-(5-tetrazole)-3-(3-cyclopentyloxy-4-methoxyphenyl)cyclopentane],0.0018,
COC(=O)C1CC(C#N)(c2ccc(OC(F)F)c(OCC3CC3)c2)CCC1=O (centres unmarked) [2-carbomethoxy-4-cyano-4-(3-cyclopropylmethoxy-4-difluoromethoxyphenyl)cyclohexan-1-one],,improvement in therapeutic index [3]: 100 fold
COc1ccc(C2CCN(Cc3ccc(NC(=NC#N)SC)cc3)C2=O)cc1OC1CCCC1 (centres unmarked) [3-(cyclopentyloxy-4-methoxyphenyl)-1-(4-N′-[N2-cyano-S-methyl-isothioureido]benzyl)-2-pyrrolidone],0.30,
CCOC(=O)C=C1C[C@H](c2ccc(OC)c(OC3CCCC3)c2)CN1 [(R)-(+)-ethyl [4-(3-cyclopentyloxy-4-methoxyphenyl)pyrrolidine-2-ylidene]acetate],2.143,
CCOC(=O)C=C1C[C@@H](c2ccc(OC)c(OC3CCCC3)c2)CN1 [(S)-(−)-ethyl[4-(3-cyclopentyloxy-4-methoxyphenyl)pyrrolidine-2-ylidene]acetate],.98,
"CC(C)Cn1c(=O)n(C)c(=O)c2[nH]cnc21 [IBMX, reference compound]",0.698,
"NC(=O)C(=O)NCCc1ccc(OC(F)F)c(OC(F)F)c1 [N-[2-(3,4-bisdifluoromethoxy-phenyl)ethyl]oxamide]",0.25,
COc1ccc(CCNC(=O)C(N)=O)cc1OC1CCCC1 [N-[2-(3-cyclopentyloxy-4-methoxyphenyl)ethyl]oxamide],0.013,
CCCCOc1cc(CC2CNC(=O)N2)ccc1OC (centres unmarked) [Ro 20-1724],,acid secretion (acid secretion): enhance acid secretion
COc1ccc(C2(C#N)CCC(C(=O)O)CC2)cc1OC1CCCC1 (stereo not drawn) [cis-[4-cyano-4-(3-cyclopentyloxy-4-methoxyphenyl)cyclohexan-1-carboxylate]],,"effect in subjects suffering from COPD (COPD): reduced inflammation, bronchodilation and pulmonary neuromodulation"
N#CC1(c2ccc(OC(F)F)c(OCC3CC3)c2)CCC(O)CC1 (stereo not drawn) [cis-[4-cyano-4-(3-cyclopropylmethoxy-4-difluoromethoxyphenyl)cyclohexan-1-ol]],,improvement in therapeutic index [3]: 100 fold
"OCCN(CCO)c1nc(N2CCCCC2)c2nc(N(CCO)CCO)nc(N3CCCCC3)c2n1 [dipyridamole, reference compound]",6.25,
COc1ccc(C2CNC(=O)C2)cc1OC1CCCC1 (centres unmarked) [rolipram],,acid secretion (acid secretion): enhance acid secretion; side effects [4]: has psychotropic activity and produces gastrointestinal effects
